Laboratory results: ChEMBL document CHEMBL1201862, “PubChem BioAssay data set” (2004)
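Following 48 hours of exposure in 96-well plates, responses at five concentrations were used to interpolate endpoints linearly. GI50 = concentration required for 50% inhibition of growth.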 The source made the active and inactive calls. Rule as the data show it: active = GI50 up to about 1.1 µM and inactive = higher.

What was measured:
Assay in all cases: NCI tumour cell line growth inhibition, 48 h
786-0 = system: 786-0
A498 = system: A498
A549 = system: A549
ACHN = system: ACHN
BT-549 = system: BT-549
CAKI-1 = system: CAKI-1
CCRF-CEM = system: CCRF-CEM
COLO 205 = system: COLO 205
DU-145 = system: DU-145
EKVX = system: EKVX
HCC 2998 = system: HCC 2998
HCT-116 = system: HCT-116
HCT-15 = system: HCT-15
HL-60 = system: HL-60
HOP-62 = system: HOP-62
HOP-92 = system: HOP-92
HT-29 = system: HT-29
Hs-578T = system: Hs-578T
IGROV-1 = system: IGROV-1
K562 = system: K562
KM12 = system: KM12
LOX IMVI = system: LOX IMVI
M14 = system: M14
MCF7 = system: MCF7
MDA-MB-231 = system: MDA-MB-231
MDA-MB-435 = system: MDA-MB-435
MDA-N = system: MDA-N
MOLT-4 = system: MOLT-4
Malme-3M = system: Malme-3M
NCI-H226 = system: NCI-H226
NCI-H23 = system: NCI-H23
NCI-H460 = system: NCI-H460
NCI-H522 = system: NCI-H522
NCI/ADR-RES = system: NCI/ADR-RES
OVCAR-3 = system: OVCAR-3
OVCAR-4 = system: OVCAR-4
OVCAR-5 = system: OVCAR-5
OVCAR-8 = system: OVCAR-8
PC-3 = system: PC-3
RPMI-8226 = system: RPMI-8226
RXF 393 = system: RXF 393
SF-268 = system: SF-268
SF-295 = system: SF-295
SF-539 = system: SF-539
SK-MEL-28 = system: SK-MEL-28
SK-MEL-2 = system: SK-MEL-2
SK-MEL-5 = system: SK-MEL-5
SK-OV-3 = system: SK-OV-3
SN12C = system: SN12C
SNB-19 = system: SNB-19
SNB-75 = system: SNB-75
SR = system: SR
SW-620 = system: SW-620
T47D = system: T47D
TK-10 = system: TK-10
U-251 = system: U-251
UACC-257 = system: UACC-257
UACC-62 = system: UACC-62
UO-31 = system: UO-31

For `O=[N+]([O-])/C(Cl)=C(\NCCO)C(Cl)=C(Cl)Cl`, the GI50 (786-0) was 45 µM (inactive), the GI50 (A498) was > 100 µM (inactive) and the GI50 (A549) was > 100 µM (inactive). For the same compound, the GI50 (ACHN) was 89.5 µM (inactive), the GI50 (BT-549) was > 79.8 µM (inactive) and the GI50 (CAKI-1) was > 86.7 µM (inactive). For the same compound, the GI50 (CCRF-CEM) was 16.9 µM (inactive), the GI50 (COLO 205) was 27.5 µM (inactive) and the GI50 (DU-145) was > 100 µM (inactive). The GI50 (EKVX) was > 100 µM (inactive), the GI50 (HCC 2998) was > 100 µM (inactive) and the GI50 (HCT-116) was 45.2 µM (inactive). The GI50 (HCT-15) was 30.8 µM, the GI50 (HL-60) was 4.35 µM (inactive) and the GI50 (HOP-62) was > 100 µM (inactive). For the same compound, the GI50 (HOP-92) was > 84.5 µM (inactive), the GI50 (HT-29) was 57 µM (inactive) and the GI50 (Hs-578T) was > 65.5 µM (inactive). The GI50 (IGROV-1) was > 100 µM (inactive), the GI50 (K562) was 8.2 µM (inactive) and the GI50 (KM12) was > 89.1 µM (inactive). For the same compound, the GI50 (LOX IMVI) was 70 µM (inactive), the GI50 (M14) was 38.8 µM (inactive) and the GI50 (MCF7) was 52 µM (inactive). For the same compound, the GI50 (MDA-MB-231) was > 64.9 µM (inactive), the GI50 (MDA-MB-435) was 55.8 µM (inactive) and the GI50 (MDA-N) was 55.5 µM (inactive). For the same compound, the GI50 (MOLT-4) was 20.7 µM (inactive), the GI50 (Malme-3M) was 32.5 µM (inactive) and the GI50 (NCI-H226) was > 100 µM (inactive). The GI50 (NCI-H23) was 72.1 µM (inactive), the GI50 (NCI-H460) was > 100 µM (inactive) and the GI50 (NCI-H522) was 21.7 µM (inactive). For the same compound, the GI50 (NCI/ADR-RES) was 61.1 µM (inactive), the GI50 (OVCAR-3) was 60.4 µM (inactive) and the GI50 (OVCAR-4) was 59.4 µM (inactive). The GI50 (OVCAR-5) was > 100 µM (inactive), the GI50 (OVCAR-8) was 52.8 µM (inactive) and the GI50 (PC-3) was 87.3 µM (inactive). The GI50 (RPMI-8226) was 16.1 µM (inactive), the GI50 (RXF 393) was 56.1 µM (inactive) and the GI50 (SF-268) was 87.9 µM (inactive). For the same compound, the GI50 (SF-295) was > 100 µM (inactive), the GI50 (SF-539) was > 100 µM (inactive) and the GI50 (SK-MEL-28) was > 85.7 µM (inactive). The GI50 (SK-MEL-2) was > 100 µM (inactive), the GI50 (SK-MEL-5) was > 96.4 µM (inactive) and the GI50 (SK-OV-3) was > 100 µM (inactive). For the same compound, the GI50 (SN12C) was 43 µM (inactive), the GI50 (SNB-19) was > 100 µM (inactive) and the GI50 (SNB-75) was > 80.2 µM (inactive). The GI50 (SR) was 20.5 µM (inactive), the GI50 (SW-620) was 41.3 µM (inactive) and the GI50 (T47D) was 57.7 µM (inactive). The GI50 (TK-10) was > 89.3 µM (inactive), the GI50 (U-251) was > 93.3 µM (inactive) and the GI50 (UACC-257) was > 100 µM (inactive). For the same compound, the GI50 (UACC-62) was 45.2 µM (inactive) and the GI50 (UO-31) was > 74.5 µM (inactive).
With `NC(=O)c1ccc2c(c1)S(=O)(=O)c1ccccc1C2=O` the GI50 (786-0) was 64.6 µM (inactive), the GI50 (A498) was > 100 µM (inactive) and the GI50 (A549) was > 100 µM (inactive). The GI50 (ACHN) was > 100 µM (inactive), the GI50 (BT-549) was > 100 µM (inactive) and the GI50 (CAKI-1) was > 100 µM (inactive). The GI50 (CCRF-CEM) was > 100 µM (inactive), the GI50 (COLO 205) was > 100 µM (inactive) and the GI50 (DU-145) was > 100 µM (inactive). For the same compound, the GI50 (EKVX) was 10 µM (inactive), the GI50 (HCC 2998) was > 100 µM (inactive) and the GI50 (HCT-116) was > 100 µM (inactive). The GI50 (HCT-15) was over 100 µM, the GI50 (HL-60) was > 100 µM (inactive) and the GI50 (HOP-62) was 45 µM (inactive). For the same compound, the GI50 (HOP-92) was 63.2 µM (inactive), the GI50 (HT-29) was > 100 µM (inactive) and the GI50 (Hs-578T) was 58.6 µM (inactive). The GI50 (IGROV-1) was > 100 µM (inactive), the GI50 (K562) was > 100 µM (inactive) and the GI50 (KM12) was > 100 µM (inactive). For the same compound, the GI50 (LOX IMVI) was > 100 µM (inactive), the GI50 (M14) was > 100 µM (inactive) and the GI50 (MCF7) was > 100 µM (inactive). The GI50 (MDA-MB-231) was 65.2 µM (inactive), the GI50 (MDA-MB-435) was > 100 µM (inactive) and the GI50 (MDA-N) was > 100 µM (inactive). The GI50 (MOLT-4) was > 100 µM (inactive), the GI50 (Malme-3M) was > 100 µM (inactive) and the GI50 (NCI-H226) was > 100 µM (inactive). The GI50 (NCI-H23) was > 100 µM (inactive), the GI50 (NCI-H460) was > 100 µM (inactive) and the GI50 (NCI-H522) was > 100 µM (inactive). The GI50 (NCI/ADR-RES) was > 100 µM (inactive), the GI50 (OVCAR-3) was > 100 µM (inactive) and the GI50 (OVCAR-4) was > 100 µM (inactive). For the same compound, the GI50 (OVCAR-5) was > 100 µM (inactive), the GI50 (OVCAR-8) was 33.1 µM (inactive) and the GI50 (PC-3) was > 100 µM (inactive). For the same compound, the GI50 (RPMI-8226) was > 100 µM (inactive), the GI50 (RXF 393) was > 100 µM (inactive) and the GI50 (SF-268) was 35.9 µM (inactive). The GI50 (SF-295) was 57.8 µM (inactive), the GI50 (SF-539) was 46.6 µM (inactive) and the GI50 (SK-MEL-28) was > 100 µM (inactive). The GI50 (SK-MEL-2) was > 100 µM (inactive), the GI50 (SK-MEL-5) was > 100 µM (inactive) and the GI50 (SK-OV-3) was 75 µM (inactive). The GI50 (SN12C) was > 100 µM (inactive), the GI50 (SNB-19) was > 100 µM (inactive) and the GI50 (SNB-75) was 46.8 µM (inactive). The GI50 (SR) was > 100 µM (inactive), the GI50 (SW-620) was > 100 µM (inactive) and the GI50 (T47D) was > 100 µM (inactive). The GI50 (TK-10) was > 100 µM (inactive), the GI50 (U-251) was 73.3 µM (inactive) and the GI50 (UACC-257) was > 100 µM (inactive). The GI50 (UACC-62) was > 100 µM (inactive) and the GI50 (UO-31) was > 100 µM (inactive).
